For data set [1], the system named is perennial ryegrass, fine fescue, Kentucky bluegrass, tall fescue, zoysiagrass, St. Augustinegrass, centipedegrass. Conditions: cited from earlier work.
Another data set concerns weeds. Conditions: mesotrione applied in a granular composition; cited from earlier work.
The subject of a further data set is Bermudagrass. Particulars: postemergence spray application, 31 g ai/ha; cited from earlier work.
Data set [2] deals with Bermudagrass, Centipedegrass, St. Augustinegrass, Zoysiagrass. The data set can be described thus: Subsequent testing of spray applications on warm-season turfgrasses. Type of data set: in vivo. Conditions: Zoysiagrass and mixtures. From the text:
(§1) Accordingly new treatments using aminocyclopyrachlor and its derivatives are needed for successful selective weed control in turf comprising warm-season turfgrasses.

For a further data set, the system named is cool-season turfgrasses. The data set can be described thus: Subsequent testing of spray applications on cool-season turfgrasses. The class given is in vivo. Particulars: most cool-season turfgrasses.
Source text: as §1

As to `CS(=O)(=O)c1ccc(C(=O)C2C(=O)CCCC2=O)c([N+](=O)[O-])c1` [mesotrione], the “damage/phytotoxicity to turfgrass varieties, formulations in spray form” value in data set [1] (mesotrione applied as a liquid in spray form) was “unacceptable levels of damage/phytotoxicity”. For the same molecule, the “phytotoxicity to turfgrasses, granular composition” value in data set [1] (mesotrione applied in a granular composition) was “reduced to insignificant levels”. The “weed control, granular composition” value with weeds is listed as “good weed control”.

As to `COC(=O)c1nc(C2CC2)nc(N)c1Cl` [Compound 1, methyl 6-amino-5-chloro-2-cyclopropyl-4-pyrimidinecarboxylate], the “injury to Bermudagrass” value with Bermudagrass was 60%. Besides, the “phytotoxicity of spray applications to warm-season turfgrasses” value in data set [2] was “unacceptable phytotoxicity”. Besides, the “safety of spray applications to cool-season turfgrasses” value in the data set on cool-season turfgrasses is reported as “sufficient safety”.
